Measurements from PubChem BioAssay (NCI).
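Five concentrations, 48 hours, 96-well plates. Abbreviation: GI50, concentration required for 50% inhibition of growth. Definition used: TGI = concentration required for complete inhibition of growth.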

Key:
Test in all cases: NCI anticancer screen, dose series, 48 h
K-562 leukemia = test system: K-562 leukemia
SN12C renal = test system: SN12C renal
M14 melanoma = test system: M14 melanoma
PC-3 prostate = test system: PC-3 prostate
DU-145 prostate = test system: DU-145 prostate
IGROV1 ovarian = test system: IGROV1 ovarian
CAKI-1 renal = test system: CAKI-1 renal
U251 CNS = test system: U251 CNS
NCI-H460 lung = test system: NCI-H460 lung
MDA-MB-435 = test system: MDA-MB-435
SK-OV-3 ovarian = test system: SK-OV-3 ovarian
SNB-19 CNS = test system: SNB-19 CNS
HOP-92 NSCLC = test system: HOP-92 NSCLC
HS 578T breast = test system: HS 578T breast
HOP-62 NSCLC = test system: HOP-62 NSCLC
UO-31 renal = test system: UO-31 renal
MDA-MB-231 breast = test system: MDA-MB-231 breast
EKVX NSCLC = test system: EKVX NSCLC
NCI/ADR-RES ovarian = test system: NCI/ADR-RES ovarian
UACC-62 melanoma = test system: UACC-62 melanoma
TK-10 renal = test system: TK-10 renal
CCRF-CEM leukemia = test system: CCRF-CEM leukemia
UACC-257 melanoma = test system: UACC-257 melanoma
SR leukemia = test system: SR leukemia
OVCAR-8 ovarian = test system: OVCAR-8 ovarian
MCF7 breast = test system: MCF7 breast
NCI-H522 lung = test system: NCI-H522 lung
SF-539 CNS = test system: SF-539 CNS
NCI-H226 lung = test system: NCI-H226 lung
A549 NSCLC = test system: A549 NSCLC
SK-MEL-2 melanoma = test system: SK-MEL-2 melanoma
SK-MEL-28 melanoma = test system: SK-MEL-28 melanoma
RPMI-8226 leukemia = test system: RPMI-8226 leukemia
ACHN renal = test system: ACHN renal
HCC-2998 colon = test system: HCC-2998 colon
SK-MEL-5 melanoma = test system: SK-MEL-5 melanoma
SW-620 colon = test system: SW-620 colon
OVCAR-4 ovarian = test system: OVCAR-4 ovarian
OVCAR-3 ovarian = test system: OVCAR-3 ovarian
SF-268 CNS = test system: SF-268 CNS
786-0 renal = test system: 786-0 renal
MOLT-4 leukemia = test system: MOLT-4 leukemia
HCT-116 colon = test system: HCT-116 colon
COLO 205 colon = test system: COLO 205 colon
NCI-H23 lung = test system: NCI-H23 lung
T-47D breast = test system: T-47D breast
HL-60(TB) leukemia = test system: HL-60(TB) leukemia
LOX IMVI melanoma = test system: LOX IMVI melanoma
MALME-3M melanoma = test system: MALME-3M melanoma
BT-549 breast = test system: BT-549 breast
RXF 393 renal = test system: RXF 393 renal
SF-295 CNS = test system: SF-295 CNS
HT29 colon = test system: HT29 colon
HCT-15 colon = test system: HCT-15 colon
SNB-75 CNS = test system: SNB-75 CNS
A498 renal = test system: A498 renal
OVCAR-5 ovarian = test system: OVCAR-5 ovarian
KM12 colon = test system: KM12 colon

## COC1=CC(=O)C(OC)=C(OC)C1=O
K-562 leukemia
  GI50: 2.29 µM
  TGI: 6.05 µM
SN12C renal
  GI50: 15.1 µM
  TGI: 28.8 µM
M14 melanoma
  GI50: 15.6 µM
  TGI: 29.7 µM
PC-3 prostate
  GI50: 14.9 µM
  TGI: 32.8 µM
DU-145 prostate
  GI50: 16 µM
  TGI: 29.7 µM
IGROV1 ovarian
  GI50: 19.7 µM
  TGI: 37.6 µM
CAKI-1 renal
  GI50: 16.1 µM
  TGI: 30 µM
U251 CNS
  GI50: 15.1 µM
  TGI: 29.3 µM
NCI-H460 lung
  GI50: 77 µM
  TGI: > 100 µM
MDA-MB-435
  GI50: 3.16 µM
  TGI: 11.1 µM
SK-OV-3 ovarian
  GI50: 72.9 µM
  TGI: > 100 µM
SNB-19 CNS
  GI50: 21.5 µM
  TGI: 52.8 µM
HOP-92 NSCLC
  GI50: 9.38 µM
  TGI: 22.4 µM
HS 578T breast
  GI50: 28 µM
  TGI: > 100 µM
HOP-62 NSCLC
  GI50: 16.2 µM
  TGI: 29.7 µM
UO-31 renal
  GI50: 13 µM
  TGI: 26.3 µM
MDA-MB-231 breast
  GI50: 2.33 µM
  TGI: 5.13 µM
EKVX NSCLC
  GI50: 15.9 µM
  TGI: 29.8 µM
NCI/ADR-RES ovarian
  GI50: 17.5 µM
  TGI: 36.6 µM
UACC-62 melanoma
  GI50: 14.4 µM
  TGI: 27.9 µM
TK-10 renal
  GI50: 15.3 µM
  TGI: 30 µM
CCRF-CEM leukemia
  GI50: 2.8 µM
  TGI: 8.39 µM
UACC-257 melanoma
  GI50: 14.2 µM
  TGI: 27.7 µM
SR leukemia
  GI50: 2.71 µM
  TGI: 9.04 µM
OVCAR-8 ovarian
  GI50: 15.5 µM
  TGI: 30.7 µM
MCF7 breast
  GI50: 21.5 µM
  TGI: 53.1 µM
NCI-H522 lung
  GI50: 3.21 µM
  TGI: 17.4 µM
SF-539 CNS
  GI50: 16.5 µM
  TGI: 30.9 µM
NCI-H226 lung
  GI50: 18.7 µM
  TGI: 39.2 µM
A549 NSCLC
  GI50: 49.5 µM
  TGI: > 100 µM
SK-MEL-2 melanoma
  GI50: 9.98 µM
  TGI: 33.1 µM
SK-MEL-28 melanoma
  GI50: 28.3 µM
  TGI: 94.1 µM
RPMI-8226 leukemia
  GI50: 14.7 µM
  TGI: 42.9 µM
ACHN renal
  GI50: 12.8 µM
  TGI: 25.3 µM
HCC-2998 colon
  GI50: > 100 µM
  TGI: > 100 µM
SK-MEL-5 melanoma
  GI50: 16.2 µM
  TGI: 30.2 µM
SW-620 colon
  GI50: 18 µM
  TGI: 35.1 µM
OVCAR-4 ovarian
  GI50: 3.05 µM
  TGI: 9.69 µM
OVCAR-3 ovarian
  GI50: 17.2 µM
  TGI: 31.1 µM
SF-268 CNS
  GI50: 17.1 µM
  TGI: 30.9 µM
786-0 renal
  GI50: 18.3 µM
  TGI: 32.5 µM
MOLT-4 leukemia
  GI50: 2.07 µM
  TGI: 5.5 µM
HCT-116 colon
  GI50: 16 µM
  TGI: 29.6 µM
COLO 205 colon
  GI50: 15.1 µM
  TGI: 29 µM
NCI-H23 lung
  GI50: 14.9 µM
  TGI: 30 µM
T-47D breast
  GI50: 10.3 µM
  TGI: 32.2 µM
HL-60(TB) leukemia
  GI50: 2.92 µM
  TGI: 8.73 µM
LOX IMVI melanoma
  GI50: 12 µM
  TGI: 25.1 µM
MALME-3M melanoma
  GI50: 18 µM
  TGI: 35.6 µM
BT-549 breast
  GI50: 16.7 µM
  TGI: 30.4 µM
RXF 393 renal
  GI50: 17.1 µM
  TGI: 30.9 µM
SF-295 CNS
  GI50: 17.8 µM
  TGI: 33.5 µM
HT29 colon
  GI50: 22.5 µM
  TGI: 53.8 µM
HCT-15 colon
  GI50: 16.2 µM
  TGI: 33.7 µM
SNB-75 CNS
  GI50: 12.1 µM
  TGI: 25.6 µM
A498 renal
  GI50: > 100 µM
  TGI: > 100 µM
OVCAR-5 ovarian
  GI50: 17.3 µM
  TGI: 33 µM

## CN(C)C/C=C/C(=O)Nc1cc2c(Nc3ccc(F)c(Cl)c3F)ncnc2cc1OCCOC(F)F
K-562 leukemia
  GI50: 0.519 µM
  TGI: 11.3 µM
SN12C renal
  GI50: 0.136 µM
  TGI: 4.52 µM
M14 melanoma
  GI50: 1.87 µM
  TGI: 6.2 µM
PC-3 prostate
  GI50: 1.9 µM
  TGI: 9.09 µM
DU-145 prostate
  GI50: 0.191 µM
  TGI: 3.34 µM
IGROV1 ovarian
  GI50: < 0.01 µM
  TGI: 0.39 µM
CAKI-1 renal
  GI50: < 0.01 µM
  TGI: 1.13 µM
U251 CNS
  GI50: 1.99 µM
  TGI: 9.23 µM
NCI-H460 lung
  GI50: 2.34 µM
  TGI: 10.5 µM
MDA-MB-435
  GI50: 1.17 µM
  TGI: 6.63 µM
SK-OV-3 ovarian
  GI50: < 0.01 µM
SNB-19 CNS
  GI50: 1.57 µM
  TGI: 11.6 µM
HOP-92 NSCLC
  GI50: 0.0585 µM
  TGI: 1.13 µM
HS 578T breast
  GI50: 0.764 µM
  TGI: 6.19 µM
HOP-62 NSCLC
  GI50: 1.31 µM
  TGI: 5.61 µM
UO-31 renal
  GI50: < 0.01 µM
  TGI: 1.78 µM
MDA-MB-231 breast
  GI50: 0.472 µM
  TGI: 6.53 µM
EKVX NSCLC
  GI50: < 0.0302 µM
  TGI: 3 µM
KM12 colon
  GI50: 2.04 µM
  TGI: 8.23 µM
NCI/ADR-RES ovarian
  GI50: 0.499 µM
  TGI: 3.74 µM
UACC-62 melanoma
  GI50: 1.45 µM
  TGI: 4.46 µM
TK-10 renal
  GI50: < 0.01 µM
  TGI: 0.738 µM
CCRF-CEM leukemia
  GI50: 2.47 µM
  TGI: 13.3 µM
UACC-257 melanoma
  GI50: 2.18 µM
  TGI: 10.3 µM
SR leukemia
  GI50: 0.496 µM
  TGI: 4.83 µM
OVCAR-8 ovarian
  GI50: 0.972 µM
  TGI: 9.9 µM
MCF7 breast
  GI50: 1.24 µM
  TGI: 10.1 µM
NCI-H522 lung
  GI50: < 0.0152 µM
  TGI: 1.35 µM
SF-539 CNS
  GI50: 0.999 µM
  TGI: 3.02 µM
NCI-H226 lung
  GI50: 1.31 µM
  TGI: 4.67 µM
A549 NSCLC
  GI50: 0.596 µM
  TGI: 10.2 µM
SK-MEL-2 melanoma
  GI50: 1.46 µM
  TGI: 3.36 µM
SK-MEL-28 melanoma
  GI50: 2.29 µM
  TGI: 9.59 µM
RPMI-8226 leukemia
  GI50: 0.921 µM
  TGI: 4.68 µM
ACHN renal
  GI50: < 0.01 µM
  TGI: 1.08 µM
HCC-2998 colon
  GI50: 1.16 µM
  TGI: 2.68 µM
SK-MEL-5 melanoma
  GI50: 1.6 µM
  TGI: 3.39 µM
SW-620 colon
  GI50: 1.24 µM
  TGI: 9.58 µM
OVCAR-4 ovarian
  GI50: 1.18 µM
  TGI: 10.7 µM
OVCAR-3 ovarian
  GI50: 0.101 µM
  TGI: 1.73 µM
SF-268 CNS
  GI50: 0.71 µM
  TGI: 3.89 µM
786-0 renal
  GI50: 0.348 µM
  TGI: 3.56 µM
MOLT-4 leukemia
  GI50: 1.11 µM
  TGI: 5.43 µM
HCT-116 colon
  GI50: 0.625 µM
  TGI: 2.98 µM
COLO 205 colon
  GI50: 1.03 µM
  TGI: 3.55 µM
NCI-H23 lung
  GI50: 1.23 µM
  TGI: 3.82 µM
T-47D breast
  GI50: < 0.0127 µM
  TGI: 0.458 µM
HL-60(TB) leukemia
  GI50: 1.74 µM
  TGI: 6.96 µM
LOX IMVI melanoma
  GI50: 0.958 µM
  TGI: 2.25 µM
MALME-3M melanoma
  GI50: 1.27 µM
  TGI: 2.94 µM
BT-549 breast
  GI50: 1.57 µM
  TGI: 6.86 µM
RXF 393 renal
  GI50: 0.241 µM
  TGI: 1.6 µM
SF-295 CNS
  GI50: 1.72 µM
  TGI: 9.86 µM
HT29 colon
  GI50: 0.422 µM
  TGI: 5 µM
HCT-15 colon
  GI50: 0.491 µM
  TGI: 2.96 µM
SNB-75 CNS
  GI50: 0.162 µM
  TGI: 2.47 µM
A498 renal
  GI50: 0.282 µM
  TGI: 1.91 µM
OVCAR-5 ovarian
  GI50: 0.136 µM
  TGI: 13.7 µM
